24 molecules from patent US20240034737A1, “Heterocyclic Derivatives as P2X7 Receptor Antagonists” (BREYE THERAPEUTICS APS, priority 2020, published 2024) can be followed below.

One assay addresses P2X7 receptor (Homo sapiens (Human), UniProt Q99572). Nature of the assay: Human P2X7 channel calcium-influx assay (Fluo-8 NW, FLIPR TETRA, Bz-ATP stimulation). In kind it is cell-based. Particulars: HEK-293 cells stably transfected with P2X7 receptor, Low Divalent Cation Assay Buffer, read-out: hP2X7 IC50. As to the method: (§1) Extracellular binding of Bz-ATP to P2X7 receptor opens the channel and allows Ca^2+ influx into the cells. This Ca^2+ entry was measured in HEK-293 cells stably transfected with P2X7 receptor using Screen Quest™ Fluo-8 No Wash Calcium Assay Kit (AAt Bioquest®, cat. 36316). Once inside the cell, the lipophilic blocking groups of Fluo-8 are cleaved by non-specific cell esterases, resulting in a negatively-charged fluorescent dye that stays inside cells. Its fluorescence increases upon binding to calcium. When HEK-293/P2X7 cells are stimulated with Bz-ATP, Ca^2+ enters the cells and the fluorescence of Fluo-8 NW increases.
(§2) HEK-293 cells stably transfected with P2X7 receptor were seeded overnight in growth medium at 10,000 to 20,000 cells/well in 384-well plate. 24 hours later, the medium was removed, and the cells were pre-loaded at RT for 1 hour with 20 μL/w of Fluo-8 NW. Then 10 μL/w of test compounds and reference antagonist A438079 at 3X-concentration were injected with the […] and the kinetic response over a period of five minutes was monitored.

Another assay has as its target mP2X7 (Mus musculus (Mouse), UniProt Q9Z1M0). Nature of the assay: mP2X7 channel calcium-influx assay (Fluo-8 NW, FLIPR TETRA, Bz-ATP stimulation). It counts as cell-based. As for the experimental part: as §1, §2

Chain of P2X7 receptor (Q99572 whole entry): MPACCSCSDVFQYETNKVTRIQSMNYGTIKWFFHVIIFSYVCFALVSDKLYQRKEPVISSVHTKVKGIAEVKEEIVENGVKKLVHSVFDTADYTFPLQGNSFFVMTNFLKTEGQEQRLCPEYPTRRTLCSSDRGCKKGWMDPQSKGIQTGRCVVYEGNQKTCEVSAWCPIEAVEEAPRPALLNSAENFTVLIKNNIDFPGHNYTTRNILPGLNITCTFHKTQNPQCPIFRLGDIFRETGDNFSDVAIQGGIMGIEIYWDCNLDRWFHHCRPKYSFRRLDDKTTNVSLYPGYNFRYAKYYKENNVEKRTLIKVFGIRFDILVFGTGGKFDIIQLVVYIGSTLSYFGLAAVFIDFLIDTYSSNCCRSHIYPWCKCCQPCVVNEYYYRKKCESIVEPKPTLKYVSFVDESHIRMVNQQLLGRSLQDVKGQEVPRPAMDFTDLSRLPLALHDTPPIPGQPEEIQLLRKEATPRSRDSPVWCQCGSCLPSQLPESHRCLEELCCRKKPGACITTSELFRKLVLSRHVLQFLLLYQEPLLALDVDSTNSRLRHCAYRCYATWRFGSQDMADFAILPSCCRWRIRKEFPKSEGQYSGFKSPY
Chain of mP2X7 (Q9Z1M0 whole entry): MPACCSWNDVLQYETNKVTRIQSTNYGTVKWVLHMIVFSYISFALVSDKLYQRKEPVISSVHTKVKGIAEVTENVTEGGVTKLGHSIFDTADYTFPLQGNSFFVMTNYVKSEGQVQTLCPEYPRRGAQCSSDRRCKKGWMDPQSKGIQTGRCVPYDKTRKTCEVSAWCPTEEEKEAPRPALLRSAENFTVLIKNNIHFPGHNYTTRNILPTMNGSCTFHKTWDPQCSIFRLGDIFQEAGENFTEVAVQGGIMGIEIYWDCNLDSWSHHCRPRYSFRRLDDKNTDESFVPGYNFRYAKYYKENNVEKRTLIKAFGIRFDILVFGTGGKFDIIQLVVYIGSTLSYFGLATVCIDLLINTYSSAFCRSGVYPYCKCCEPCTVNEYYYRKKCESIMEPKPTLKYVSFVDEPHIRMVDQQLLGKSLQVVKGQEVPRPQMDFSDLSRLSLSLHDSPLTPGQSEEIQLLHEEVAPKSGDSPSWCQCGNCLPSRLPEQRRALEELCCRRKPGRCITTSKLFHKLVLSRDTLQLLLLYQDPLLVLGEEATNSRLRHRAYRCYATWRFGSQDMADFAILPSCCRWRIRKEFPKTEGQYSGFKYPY

As a reminder, the IC50 is the midpoint of a concentration-inhibition curve. Regarding `N#Cc1cncc(OC2CCN(C(CNC(=O)c3c(F)cccc3Cl)c3scnc3C(F)F)CC2)c1` (stereo not drawn) [Example 16, 2-Chloro-N-(2-{4-[(5-cyanopyridin-3-yl)oxy]piperidin-1-yl}-2-[4-(difluoromethyl)-1,3-thiazol-5-yl]ethyl)-6-fluorobenzamide], the IC50 at P2X7 receptor came out at 56.9 nM; on mP2X7 it was 68.3 nM.
Regarding `O=C(NCC(c1scnc1C(F)F)N1CCC(Oc2nnnn2-c2ccccc2)CC1)c1c(F)cccc1Cl` (stereo not drawn) [Example 25, 2-Chloro-N-{2-[4-(difluoromethyl)-1,3-thiazol-5-yl]-2-{4-[(1-phenyl-1H-1,2,3,4-tetrazol-5-yl)oxy]piperidin-1-yl}ethyl}-6-fluorobenzamide], the values for the IC50 at P2X7 receptor and on mP2X7 were 57.7 nM and 45.8 nM, respectively.
The matching figures for `N#Cc1nccnc1OC1CCN(C(CNC(=O)c2c(F)cccc2Cl)c2scnc2C(F)F)CC1` (stereo not drawn) [Example 17, 2-Chloro-N-(2-{4-[(3-cyanopyrazin-2-yl)oxy]piperidin-1-yl}-2-[4-(difluoromethyl)-1,3-thiazol-5-yl]ethyl)-6-fluorobenzamide]: 55 nM and 320 nM.
For `N#Cc1cccnc1OCC1CCN(C(CNC(=O)c2c(F)cccc2Cl)c2scnc2C(F)F)CC1` (stereo not drawn) [Example 108, 2-Chloro-N-[2-(4-{[(3-cyanopyridin-2-yl)oxy]methyl}piperidin-1-yl)-2-[4-(difluoromethyl)-1,3-thiazol-5-yl]ethyl]-6-fluorobenzamide], the figures for the IC50 at P2X7 receptor and on mP2X7 were 25.6 nM and 13.2 nM, respectively.
The matching figures for `Cc1nc(F)cc(OC2CCN(C(CNC(=O)c3c(F)cccc3Cl)c3scnc3C(F)F)CC2)n1` (stereo not drawn) [Example 39, 2-Chloro-N-{2-[4-(difluoromethyl)-1,3-thiazol-5-yl]-2-{4-[(6-fluoro-2-methylpyrimidin-4-yl)oxy]piperidin-1-yl}ethyl}-6-fluorobenzamide]: 51.1 nM and 44.6 nM.
In the same order, the values of `O=C(NCC(c1scnc1C(F)F)N1CCC(COc2ccc(F)cn2)CC1)c1c(F)cccc1Cl` (stereo not drawn) [Example 102, 2-Chloro-N-{2-[4-(difluoromethyl)-1,3-thiazol-5-yl]-2-(4-{[(5-fluoropyridin-2-yl)oxy]methyl}piperidin-1-yl)ethyl}-6-fluorobenzamide] are 32 nM and 33.8 nM.
In the case of `N#Cc1ccnc(OC2CCN(C(CNC(=O)c3c(F)cccc3Cl)c3scnc3C(F)F)CC2)c1` (stereo not drawn) [Example 79, 2-Chloro-N-(2-{4-[(4-cyanopyridin-2-yl)oxy]piperidin-1-yl}-2-[4-(difluoromethyl)-1,3-thiazol-5-yl]ethyl)-6-fluorobenzamide], the concentration for half-maximal inhibition (IC50) at P2X7 receptor stood at 30.1 nM; on mP2X7, 41.4 nM.
Take `COCCc1nsc(OC2CCN(C(CNC(=O)c3c(F)cccc3Cl)c3scnc3C(F)F)CC2)n1` (stereo not drawn) [Example 23, 2-Chloro-N-{2-[4-(difluoromethyl)-1,3-thiazol-5-yl]-2-(4-{[3-(2-methoxyethyl)-1,2,4-thiadiazol-5-yl]oxy}piperidin-1-yl)ethyl}-6-fluorobenzamide]: the results for the IC50 on P2X7 receptor and at mP2X7 were 73.6 nM and 183 nM, respectively.
The matching figures for `O=C(NCC(c1scnc1C(F)F)N1CCC(Oc2ncccc2C(F)(F)F)CC1)c1c(F)cccc1Cl` (stereo not drawn) [Example 59, 2-Chloro-N-{2-[4-(difluoromethyl)-1,3-thiazol-5-yl]-2-(4-{[3-(trifluoromethyl)pyridin-2-yl]oxy}piperidin-1-yl)ethyl}-6-fluorobenzamide]: 29.4 nM and 56.1 nM.
On to `Cn1ncc2c(OC3CCN(C(CNC(=O)c4c(F)cccc4Cl)c4scnc4C(F)F)CC3)ncnc21` (stereo not drawn) [Example 51, 2-Chloro-N-{2-[4-(difluoromethyl)-1,3-thiazol-5-yl]-2-[4-({1-methyl-1H-pyrazolo[3,4-d]pyrimidin-4-yl}oxy)piperidin-1-yl]ethyl}-6-fluorobenzamide], for which the figures for the IC50 on P2X7 receptor and on mP2X7 were 62.2 nM and 68.7 nM, respectively.
Take `N#Cc1nccnc1OCC1CCN(C(CNC(=O)c2c(F)cccc2Cl)c2scnc2C(F)F)CC1` (stereo not drawn) [Example 92, 2-Chloro-N-[2-(4-{[(3-cyanopyrazin-2-yl)oxy]methyl}piperidin-1-yl)-2-[4-(difluoromethyl)-1,3-thiazol-5-yl]ethyl]-6-fluorobenzamide]: the half-inhibitory concentration (IC50) on P2X7 receptor is 22.5 nM; on mP2X7, 33.5 nM.
On to `O=C(NCC(c1scnc1C(F)F)N1CCC(Oc2ccccn2)CC1)c1c(F)cccc1Cl` (stereo not drawn) [Example 1, 2-chloro-N-{2-[4-(difluoromethyl)-1,3-thiazol-5-yl]-2-[4-(pyridin-2-yloxy)piperidin-1-yl]ethyl}-6-fluorobenzamide], for which the IC50 was determined as 21.7 nM at P2X7 receptor and 53.5 nM at mP2X7.
Consider `Cc1cnc(F)nc1OC1CCN(C(CNC(=O)c2c(F)cccc2Cl)c2scnc2C(F)F)CC1` (stereo not drawn) [Example 55, 2-Chloro-N-{2-[4-(difluoromethyl)-1,3-thiazol-5-yl]-2-{4-[(2-fluoro-5-methylpyrimidin-4-yl)oxy]piperidin-1-yl}ethyl}-6-fluorobenzamide], for which the half-maximal inhibitory concentration (IC50) at P2X7 receptor was found to be 22.9 nM; at mP2X7, 34 nM.
Turning to `N#Cc1cccc(OC2CCN(C(CNC(=O)c3c(F)cccc3Cl)c3scnc3C(F)F)CC2)n1` (stereo not drawn) [Example 37, 2-Chloro-N-(2-{4-[(6-cyanopyridin-2-yl)oxy]piperidin-1-yl}-2-[4-(difluoromethyl)-1,3-thiazol-5-yl]ethyl)-6-fluorobenzamide], the half-inhibitory concentration (IC50) on P2X7 receptor came to 28 nM; on mP2X7 it was 28.5 nM.
In the same order, the values of `O=C(NCC(c1scnc1C(F)F)N1CCC(Oc2nc3ccccc3o2)CC1)c1c(F)cccc1Cl` (stereo not drawn) [Example 22, N-{2-[4-(1,3-Benzoxazol-2-yloxy)piperidin-1-yl]-2-[4-(difluoromethyl)-1,3-thiazol-5-yl]ethyl}-2-chloro-6-fluorobenzamide] are 20.5 nM and 12.3 nM.
As for `O=C(NCC(c1scnc1C(F)F)N1CCC(Oc2ccncc2F)CC1)c1c(F)cccc1Cl` (stereo not drawn) [Example 6, 2-chloro-N-{2-[4-(difluoromethyl)-1,3-thiazol-5-yl]-2-{4-[(3-fluoropyridin-4-yl)oxy]piperidin-1-yl}ethyl}-6-fluorobenzamide], the IC50 at P2X7 receptor was determined as 49.9 nM; at mP2X7, 69.7 nM.
For the molecule `O=C(NCC(c1scnc1C(F)F)N1CCC(COc2ccn3nccc3n2)CC1)c1c(F)cccc1Cl` (stereo not drawn) [Example 117, 2-Chloro-N-{2-[4-(difluoromethyl)-1,3-thiazol-5-yl]-2-[4-({pyrazolo[1,5-a]pyrimidin-5-yloxy}methyl)piperidin-1-yl]ethyl}-6-fluorobenzamide], the IC50 at P2X7 receptor is 48.2 nM; at mP2X7, 35.8 nM.
The matching figures for `Cc1c(F)ncnc1OC1CCN(C(CNC(=O)c2c(F)cccc2Cl)c2scnc2C(F)F)CC1` (stereo not drawn) [Example 40, 2-Chloro-N-{2-[4-(difluoromethyl)-1,3-thiazol-5-yl]-2-{4-[(6-fluoro-5-methylpyrimidin-4-yl)oxy]piperidin-1-yl}ethyl}-6-fluorobenzamide]: 32.7 nM and 50.6 nM.
The matching figures for `O=C(NCC(c1scnc1C(F)F)N1CCC(Oc2ccnc(F)n2)CC1)c1c(F)cccc1Cl` (stereo not drawn) [Example 35, 2-Chloro-N-{2-[4-(difluoromethyl)-1,3-thiazol-5-yl]-2-{4-[(2-fluoropyrimidin-4-yl)oxy]piperidin-1-yl}ethyl}-6-fluorobenzamide]: 71.1 nM and 190 nM.
As for `O=C(NCC(c1scnc1C(F)F)N1CCC(Oc2cnccn2)CC1)c1c(F)cccc1Cl` (stereo not drawn) [Example 70, 2-Chloro-N-{2-[4-(difluoromethyl)-1,3-thiazol-5-yl]-2-[4-(pyrazin-2-yloxy)piperidin-1-yl]ethyl}-6-fluorobenzamidev], the concentration for half-maximal inhibition (IC50) is 50 nM at P2X7 receptor and 101 nM at mP2X7.
On to `Cc1cccc(OCC2CCN(C(CNC(=O)c3c(F)cccc3Cl)c3scnc3C(F)F)CC2)n1` (stereo not drawn) [Example 88, 2-Chloro-N-{2-[4-(difluoromethyl)-1,3-thiazol-5-yl]-2-(4-{[(6-methylpyridin-2-yl)oxy]methyl}piperidin-1-yl)ethyl}-6-fluorobenzamide], for which the IC50 at P2X7 receptor was 27.8 nM; at mP2X7, 25.2 nM.
Regarding `O=C(NCC(c1scnc1C(F)F)N1CCC(COc2cncc(F)n2)CC1)c1c(F)cccc1Cl` (stereo not drawn) [Example 105, 2-Chloro-N-{2-[4-(difluoromethyl)-1,3-thiazol-5-yl]-2-(4-{[(6-fluoropyrazin-2-yl)oxy]methyl}piperidin-1-yl)ethyl}-6-fluorobenzamide], the results for the IC50 at P2X7 receptor and on mP2X7 were 48.4 nM and 30.4 nM, respectively.
`O=C(NCC(c1scnc1C(F)F)N1CCC(Oc2nc(-c3ccccc3)no2)CC1)c1c(F)cccc1Cl` (stereo not drawn) [Example 24, 2-Chloro-N-{2-[4-(difluoromethyl)-1,3-thiazol-5-yl]-2-{4-[(3-phenyl-1,2,4-oxadiazol-5-yl)oxy]piperidin-1-yl}ethyl}-6-fluorobenzamide]: the values for the half-maximal inhibitory concentration (IC50) at P2X7 receptor and on mP2X7 were 98.1 nM and 32.4 nM, respectively.
As to `Cc1cccnc1OCC1CCN(C(CNC(=O)c2c(F)cccc2Cl)c2scnc2C(F)F)CC1` (stereo not drawn) [Example 99, 2-Chloro-N-{2-[4-(difluoromethyl)-1,3-thiazol-5-yl]-2-(4-{[(3-methylpyridin-2-yl)oxy]methyl}piperidin-1-yl)ethyl}-6-fluorobenzamide], the IC50 on P2X7 receptor came to 22.8 nM; on mP2X7, 15.2 nM.
